The results in this text go back to patent US20220119399A1, “COMPOUNDS AND COMPOSITIONS THAT CAUSE MYCN AND/OR CMYC DEGRADATION AND METHODS OF USE THEREOF” (THE TRUSTEES OF COLUMBIA UNIVERSITY IN THE CITY OF NEW YORK, priority 2018, published 2022).

“Also recorded” adds a separate entry of the source.

For one data set, the system named is cMyc. The experiment in a line: Western blot of cMyc in A549 cells. The format is cell-based. The following applies: A549 cells, 5, 10, or 15 μM, 24 hrs. From the text:
Membranes were blocked using Odyssey Blocking Buffer (LI-COR) for 1 hr at room temperature. […] Primary antibodies used in these studies include: MycN (CST; 1:500 dilution), Actin (SCBT; 1:2000 dil.), cMYC (CST; 1:500 dil.), pAKT (S473; CST; 1:500 dil.), AKT (CST; 1:2000), pP70 (T389; CST; 1:1000) P70 (CST; 1:1000).
There are some shared upstream regulatory pathways that govern both MycN and cMyc expression, including mTOR signaling cascade (Guertin and Sabatini 2007; Hay and Sonenberg 2004). We hypothesized that isopomiferin could disrupt the expression of cMyc as well. We identified a cMyc-expressing lung cancer line, A549, and treated cells with 5, 10, or 15 μM isopomiferin for 24 hrs (FIG. 3D).
For orientation: In western blotting, separated proteins are transferred to a membrane and probed.

In another data set the target is mTOR (Homo sapiens, UniProt P42345). The data set is described as follows: Cell-free biochemical mTOR kinase assay. On the procedure: Cell-free biochemical kinase assays were performed at Reaction Biology Corporation (Malvern, Pa.). In brief, kinase substrates were diluted into reaction buffer containing 20 mM Hepes (pH 7.5), 10 mM MgCl2, 1 mM EGTA, 0.02% Brij35, 0.02 mg/ml BSA, 0.1 mM Na3VO4, 2 mM DTT, 1% DMSO. Purified protein (CK2a1, CK2a2, or mTOR) was added to the substrate solution and gently mixed. Test compounds were diluted from 10 mM DMSO stock solutions into the reaction buffer using an Echo550 acoustic dispenser, followed by incubation at RT for 20 min. 33P-ATP (10 μCi/μL) was added to reaction mixture, following incubation for 2 h at RT. Reactions were then spotted onto P81 ion exchange paper and kinase activity was detected by filter binding method.

Data set [1] relates to MycN^AMP regulatory module (Master Regulators, TCM). The data set is described as follows: PLATE-Seq with VIPER analysis: reversion of the MycN^AMP master regulator module. The data set is classed as cell-based, human. The following applies: SK-N-Be2 cells, IC20, 24 hrs. An excerpt:
Reads were mapped against the human reference genome version Grch38 using the STAR aligner, and used the variance stabilizing transformation from the DESeq2 package for R to normalize each plate. Next, we corrected for batch effect due to having compounds replicates on separate plates. We used the function combat from the sva package for R to compute the batch-corrected normalized gene expression, and fitted a linear model for each compound against the set of DMSO controls on each plate (6 wells per plate per DMSO-treated cells). We used the limma package for R to fit the linear model and to compute p-values and moderated t-statistics for each gene. For each compound, we used a vector of these statistics to generate a gene expression profile of z-scores representing the compound effect as differential between post- and pre-treatment.
Each compound gene expression profile was analyzed using the VIPER algorithm (Alvarez et al. 2016) with TARGET and NRC NBL interactomes, reverse-engineered as described in (Rajbhandari et al. 2018), resulting in two protein activity profiles for each compound that were integrated using Stouffer's z-score method.

For data set [2], the system named is PLK1, LIN28B, and BMI1 transcripts. The experiment in a line: qPCR of downstream targets of MycN (PLK1, LIN28B, BMI1) in SK-N-Be2 cells. The format is cell-based, human. As to conditions: 10 μM, up to 24 h. The procedure:
Reverse transcription quantitative polymerase chain reaction (RT-qPCR) was used to quantify transcript abundance of genes of interest. Total RNA was isolated from cells using the Qiaquick RNeasy isolation kit following manufacturer's instruction (QIAGEN). RNA quality and abundance was measured using a nanodrop spectrophotometer. A total of 2 μg RNA was used as a template for reverse transcription reactions. cDNA synthesis was performed using TaqMan reverse transcriptase following the manufacturer's instructions, using both oligod(T) and random hexamers as primers for RT reactions. RNAse treatment of cDNA removed any residual RNA in cDNA samples. cDNA samples were diluted 10-fold into nuclease-free dH2O, and used as the template for quantitative PCR reactions were performed in a Viia7 […] thermocycler using SYBR green and gene-specific primers (Table 1). qPCR reactions were performed using the Viia7 Real-Time PCR system (Applied Biosystems), and relative transcript abundance evaluated using the deltaCT method, using the GAPDH housekeeping gene as normalization control.

The test system of a further data set is SK-N-Be2 cells. The format is in vitro ADME, human. The following applies: human, 20 μM. The procedure: In brief, SK-N-Be2 cells were seeded at 400 k cells/well in 6 w plates and incubated overnight. The following day, compounds were added to wells at indicated concentrations, with DMSO-only control added to non-treated wells. Following treatment for the indicated time periods, cells were trypsinized, rinsed twice with cold PBS to remove media, pelleted by centrifugation, and frozen at −20° C. To extract compounds, frozen pellets were resuspended in 150 μL of acetonitrile, sonicated for 2′, and centrifuged at 1400×g for 75′ at 4° C. Supernatant was collected and analyzed by LC-MS using a system comprised of a Thermo Scientific Dionex Ultimate 3000 and a Bruker amaZon SL equipped with an electrospray ionization source controlled by a Bruker Hystar 3.2. Compounds were separated by injecting 20 μL of supernatant onto an Agilent Eclipse Plus C18 column (2.1×50 mm, […]) maintained at 20° C., with the flow rate set at 400 μL/min. Initial flow conditions were 60% solvent A (MilliQ H2O, 0.1% acetic acid), and 40% solvent B (HPLC-grade MeOH, 0.1% acetic acid). Solvent B was raised to 60% over 0.25 min and to 70% by 6.75 min. Solvent B was raised to 95% by 7 min and lowered back to 40% by 8 minutes; total run time was 9 min (Bos et al. 2019).

With `CC1(C)C=Cc2c(c3c(c4c(=O)c(-c5ccc(O)c(O)c5)coc24)OC(C)(C)CC3)O1` [isopomiferin], in the data set with cMyc, the cMyc protein abundance entry is on record as “suppressed cMyc protein abundance in A549 in a dose dependent manner”. Moreover, the mTOR kinase activity entry at mTOR is reported as “did not directly inhibit mTOR kinase activity”. In addition, the “reversion of the MR regulatory module / TCM (VIPER of PLATE-Seq)” value in data set [1] is reported as “the top compound of the 90 tested; also recorded: had the strongest effect on the TCM”.

As to `CC(C)=CCc1c2c(c3occ(-c4ccc(O)c(O)c4)c(=O)c3c1O)C=CC(C)(C)O2` [pomiferin], the “transcript accumulation of PLK1, LIN28B, and BMI1” value in data set [2] is recorded as “inhibited the transcript accumulation of three downstream targets of MycN”. For the same compound, the “amount of compound detected in cell sample” value in the data set with SK-N-Be2 cells was around 300 ng.
